Results reported in US20050158709A1, “Methods for determinging the influence of protein binding on antiretroviral activity” (priority 2002, published 2005).
Where two headings read alike, the source gives them in different places.

Tests used:
[1] = test system: various HIV-1 strains (resistant strains); assay type: cell-based; conditions: for EC50 ratio (human plasma or serum protein vs 10% FCS), concentration range 50 nM-5 nM: EC50 50 nM-5 nM (in vitro testing concentrations, wild type HIV); for EC50 ratio (human plasma or serum protein vs 10% FCS), concentration range 500 nM-50 nM: strains with EC50 500 nM-50 nM (sub-therapeutic concentrations)
Method: (§1) The influence of AAG, Human Serum Albumin (HSA) or Human Serum (HS) on the activity of antiretrovirals was measured in a cell-based antiviral assay. A phenotypic assay was performed to measure the ability of resistant virus strains to grow in the presence of each drug of interest, and in the presence of various combinations of plasma or serum proteins at different concentrations: • 50% heat-inactivated human serum (HS) with or without 10% fetal calf serum (FCS) • 1 mg/mL AAG and 10% FCS • 45 mg/mL human serum albumin (HSA) and 10% FCS
(§2) Anti-HIV activity was determined in HIV-or mock-infected MT4 cells by the MTT method as described by Pauwels et al (1988), J.Virol.Meth.20:[…], and Hertogs et al (1998), Antimicrob.Ag.Chemother.42:269-27. Briefly, recombinant or non-recombinant virus, with a specific resistance profile, were grown in cell culture to obtain viral stocks of known concentration. Susceptibility testing of the viral stocks in the presence of various antiviral agents and in the presence of plasma or serum proteins, and a detection system based on MTT determined to which extent agents inhibited replication of the virus strains.
(§3) Virus strains used for these studies had different origins: • HIV strains obtained by in vitro selection in the presence of various antivirals • Recombinant clinical isolates constructed according to the Antivirogram™ method as described by Hertogs et al (1998).
Virus strains with various levels of resistance against each of the PIs were used in similar experiments with AAG.

R13020 = assay: EC50 against viral strain R13020; assay type: cell-based, HIV; conditions: Human immunodeficiency virus 1
Method: (§4) As an example, protease inhibitors have clinically relevant concentrations in a range of around 500 nM and more, sub-therapeutic concentrations in the range of around 50 nM to around 500 nM, and in vitro testing concentrations in the range of less than around or 50 nM.

T13025 = assay: EC50 against viral strain T13025; assay type: cell-based, HIV; conditions: Human immunodeficiency virus 1
Method: as §4

wild type HIV-1 (LAI) = assay: Cell-based antiviral assay (MT4 cells, MTT method) in the presence of human plasma or serum proteins, wild type HIV-1; conditions: for ratio between EC50 in presence of indicated protein and EC50 in presence of 10% FCS: HS 50% / ratio between EC50 in presence of indicated protein and EC50 in presence of 10% FCS: AAG 1 mg/mL / ratio between EC50 in presence of indicated protein and EC50 in presence of 10% FCS: FCS (10%) / ratio between EC50 in presence of indicated protein and EC50 in presence of 10% FCS: HSA 45 mg/mL: wild type HIV-1 (LAI), median of at least two determinations; for ratio between EC50 in presence of indicated protein and EC50 in presence of 10% FCS: HS 50%: 50% human serum; for ratio between EC50 in presence of indicated protein and EC50 in presence of 10% FCS: AAG 1 mg/mL: AAG 1 mg/mL and 10% FCS; for ratio between EC50 in presence of indicated protein and EC50 in presence of 10% FCS: FCS (10%): FCS 10% (reference); for ratio between EC50 in presence of indicated protein and EC50 in presence of 10% FCS: HSA 45 mg/mL: HSA 45 mg/mL and 10% FCS
Method: as §1, §2, §3

T13127 = assay: EC50 against viral strain T13127; assay type: cell-based, HIV; conditions: Human immunodeficiency virus 1
Method: as §4

R13127 = assay: EC50 against viral strain R13127; assay type: cell-based, HIV; conditions: Human immunodeficiency virus 1
Method: as §4

LAI = assay: EC50 against viral strain LAI; assay type: cell-based, HIV; conditions: Human immunodeficiency virus 1
Method: as §4

R13025 = assay: EC50 against viral strain R13025; assay type: cell-based, HIV; conditions: Human immunodeficiency virus 1
Method: as §4

HIV [2] = conditions: in vitro; increasing AAG; cited from earlier work
R13028 = assay: EC50 against viral strain R13028; assay type: cell-based, HIV; conditions: Human immunodeficiency virus 1
Method: as §4

R13036 = assay: EC50 against viral strain R13036; assay type: cell-based, HIV; conditions: Human immunodeficiency virus 1
Method: as §4

R13031 = assay: EC50 against viral strain R13031; assay type: cell-based, HIV; conditions: Human immunodeficiency virus 1
Method: as §4

HIV [3] = conditions: extensive protein binding prevented intracellular diffusion; cited from earlier work
HIV [4] = conditions: cited from earlier work
R13273 = assay: EC50 against viral strain R13273; assay type: cell-based, HIV; conditions: Human immunodeficiency virus 1
Method: as §4

R13485 = assay: EC50 against viral strain R13485; assay type: cell-based, HIV; conditions: Human immunodeficiency virus 1
Method: as §4

[5] = protein not given, AAG, median of at least two determinations
[6] = strains with EC50 5 μM-500 nM (clinically relevant concentrations), protein not given, AAG, median of at least two determinations

| Compound | EC50 ratio (human plasma or serum protein vs 10% FCS), concentration range 5 μM-500 nM [1] | EC50 ratio (human plasma or serum protein vs 10% FCS), concentration range 50 nM-5 nM [1, 5] | EC50 ratio (human plasma or serum protein vs 10% FCS), concentration range 500 nM-50 nM [1, 5] | ratio between EC50 in presence of indicated protein and EC50 in presence of 10% FCS: HS 50% (wild type HIV-1 (LAI)) | ratio between EC50 in presence of indicated protein and EC50 in presence of 10% FCS: AAG 1 mg/mL (wild type HIV-1 (LAI)) | ratio between EC50 in presence of indicated protein and EC50 in presence of 10% FCS: FCS (10%) (wild type HIV-1 (LAI)) | ratio between EC50 in presence of indicated protein and EC50 in presence of 10% FCS: HSA 45 mg/mL (wild type HIV-1 (LAI)) | EC50 (LAI) | EC50 (R13025) | further results |
| --- | --- | --- | --- | --- | --- | --- | --- | --- | --- | --- |
| CC(C)CN(C[C@@H](O)[C@H](Cc1ccccc1)NC(=O)OC1CO[C@H]2OCC[C@@H]12)S(=O)(=O)c1ccc(N)cc1 (some centres unmarked) [compound 1] | 7 | 24 | 12 | – | – | – | – | – | – | EC50 ratio (human plasma or serum protein vs 10% FCS), concentration range <5 nM [1]: 85; EC50 ratio (human plasma or serum protein vs 10% FCS), concentration range >5 μM [1]: 4 |
| CC(C)(C)NC(=O)[C@@H]1C[C@@H]2CCCC[C@@H]2CN1C[C@@H](O)[C@H](Cc1ccccc1)NC(=O)[C@H](CC(N)=O)NC(=O)c1ccc2ccccc2n1 [Saquinavir, saquinavir] | 3 | 5 | 4 | 5 | 5 | 1 | 3 | – | – | EC50 (R13020): ~7000 nM; EC50 (T13025): ~166 nM; EC50 ratio (human plasma or serum protein vs 10% FCS), concentration range <5 nM [1]: 19; EC50 ratio (human plasma or serum protein vs 10% FCS), concentration range >5 μM [1]: 2; influence of AAG on the anti-HIV activity ([1]; different HIV-1 strains, AAG 1 mg/mL vs 10% FCS, FIG. 1): decreases with increasing inhibitor concentrations; EC50 (T13127): ~710 nM |
| CC(C)CN(C[C@@H](O)[C@H](Cc1ccccc1)NC(=O)O[C@H]1CCOC1)S(=O)(=O)c1ccc(N)cc1 [amprenavir] | – | 38 | 14 | 12 | 25 | 1 | 2 | ~42 nM | ~412 nM | EC50 (R13127): ~2000 nM; EC50 ratio (human plasma or serum protein vs 10% FCS), concentration range 5 μM-500 nM [1, 6]: 5 |
| CC(C)[C@H](NC(=O)N(C)Cc1ccccn1)C(=O)N[C@@H](Cc1ccccc1)[C@H](O)[C@H](O)[C@H](Cc1ccccc1)NC(=O)[C@@H](NC(=O)N(C)Cc1ccccn1)C(C)C [A77003] | – | – | – | – | – | – | – | – | – | antiviral efficacy as the concentration of α1-acid glycoprotein (AAG) was increased (HIV [2]): decreased |
| Cc1c(O)cccc1C(=O)N[C@@H](CSc1ccccc1)[C@H](O)CN1C[C@H]2CCCC[C@H]2C[C@H]1C(=O)NC(C)(C)C [Nelfinavir, nelfinavir] | – | 11 | 9 | 25 | 31 | 1 | 7 | ~32 nM | – | EC50 (R13127): ~8000 nM; EC50 (R13028): ~254 nM; EC50 (R13036): ~1000 nM; EC50 ratio (human plasma or serum protein vs 10% FCS), concentration range 5 μM-500 nM [1, 6]: 5 |
| CC(C)c1nc(CN(C)C(=O)N[C@H](C(=O)N[C@@H](Cc2ccccc2)C[C@H](O)[C@H](Cc2ccccc2)NC(=O)OCc2cncs2)C(C)C)cs1 [Ritonavir, ritonavir] | – | – | – | – | – | – | – | ~36 nM | ~2000 nM | EC50 (R13031): ~407 nM |
| CC(C)(C)NC(=O)[C@@H]1CN(Cc2cccnc2)CCN1C[C@@H](O)C[C@@H](Cc1ccccc1)C(=O)N[C@H]1c2ccccc2C[C@H]1O [Indinavir, indinavir] | – | – | – | – | – | – | – | ~36 nM | ~2000 nM | EC50 (R13028): ~261 nM; effect of AAG and HS on potency against wild-type HIV-1 (wild type HIV-1 (LAI); wild-type HIV-1, presence of AAG and HS): unaffected |
| CC(C)CN(C[C@@H](O)[C@H](Cc1ccccc1)NC(=O)[C@H](CC(N)=O)NC(=O)c1ccc2ccccc2n1)C(=O)NC(C)(C)C [SC-52151, telinavir] | – | – | – | – | – | – | – | – | – | activity in vivo (clinical efficacy) (HIV [3]): insufficient; antiretroviral activity in vitro (HIV [4]): potent |
| Cc1cccc(C)c1OCC(=O)N[C@@H](Cc1ccccc1)[C@@H](O)C[C@H](Cc1ccccc1)NC(=O)[C@H](C(C)C)N1CCCNC1=O [Lopinavir, lopinavir] | 4 | 64 | 20 | 5 | 26 | 1 | 5 | ~9 nM | – | EC50 (R13273): ~2000 nM; EC50 (R13485): ~367 nM |
